From patent US20140023611A1 (priority 2010, published 2014)

Tests used:
rat NaP2b (SLC34A2) [1] = target: T1, rat NaP2b (SLC34A2) (Rattus norvegicus, UniProt Q9JJ09); experiment: NaP2b-mediated Pi transport (33P uptake) in transfected HEK293 cells, rat NaP2b; assay type: cell-based; conditions: Table 2
T1 construct: host or cells: HEK293
T1 sequence (Q9JJ09 1-695): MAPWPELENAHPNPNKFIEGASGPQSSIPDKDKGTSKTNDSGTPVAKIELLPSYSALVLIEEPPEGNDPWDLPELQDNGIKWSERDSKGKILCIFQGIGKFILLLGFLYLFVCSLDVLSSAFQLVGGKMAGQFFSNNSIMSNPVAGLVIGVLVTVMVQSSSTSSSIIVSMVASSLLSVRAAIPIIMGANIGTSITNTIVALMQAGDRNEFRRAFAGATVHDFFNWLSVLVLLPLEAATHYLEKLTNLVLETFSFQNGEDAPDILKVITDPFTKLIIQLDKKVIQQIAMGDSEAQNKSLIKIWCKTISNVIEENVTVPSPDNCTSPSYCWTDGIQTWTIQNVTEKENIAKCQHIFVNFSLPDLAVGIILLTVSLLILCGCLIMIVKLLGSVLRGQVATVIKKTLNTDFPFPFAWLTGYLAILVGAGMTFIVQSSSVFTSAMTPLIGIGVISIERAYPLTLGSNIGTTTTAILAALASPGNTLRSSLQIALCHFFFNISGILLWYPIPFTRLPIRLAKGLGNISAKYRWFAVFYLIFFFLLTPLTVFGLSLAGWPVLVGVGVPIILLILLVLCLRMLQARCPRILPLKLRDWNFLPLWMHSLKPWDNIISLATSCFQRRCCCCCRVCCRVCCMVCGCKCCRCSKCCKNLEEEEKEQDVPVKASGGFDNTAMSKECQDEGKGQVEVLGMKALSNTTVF
Protocol: HEK293 cells were obtained from the American Type Culture collection and propagated per their instructions. Expression clones for rat and human NaP2b (SLC34A2) were obtained from Open Biosystems (Catalog numbers MRN1768-9510282, and MHS1010-99823026, respectively). The sequence of the human protein was mutated to insert a threonine after residue 37, and to introduce a N39D mutation.
(§1) The rate of phosphate (Pi) uptake into HEK293 cells was measured using a modification of the method described by Mohrmann et al. (Mohrmann, I., Mohrmann, M., Biber, J., and Murer, H. (1986) Am. J. Phys. 250(3 Pt 1):G323-30.) Transfected HEK293 cells were treated with a pharmacological agent to minimize endogenous PiT-mediated phosphate transport activity, such that the only remaining sodium-dependent phosphate transport activity is that which was bestowed by introduction of the NaP2b genes.
(§2) Cells were seeded into 96-well plates at 25,000 cells/well and cultured overnight. Lipofectamine 2000 (Invitrogen) was used to introduce the NaP2b cDNA, and the cells were allowed to approach confluence during a second overnight incubation. […] Cells were then overlayed with either choline uptake buffer or sodium uptake buffer (14 mM Tris, 137 mM sodium chloride, 5.4 mM KCl, 2.8 mM CaCl2, 1.2 mM MgSO4, 100 uM KH2PO4, PiT-silencing agent, 1 mg/mL Bovine Serum Albumin, pH 7.4) containing 6-9 uCi/mL ^33P orthophosphoric acid (Perkin Elmer) and test compound. Each compound was tested at twelve concentrations ranging from 0.1 nM to 30 uM. Assays were run in duplicate.
After incubation for 3-30 minutes at room temperature, assay mixtures were removed, and the cells were washed twice with ice cold stop solution (137 mM sodium chloride, 14 mM Tris, pH 7.4). Cells were lysed by addition of 20 μL 0.1% Tween 80 followed by 100 μL scintillation fluid, and counted using a TopCount (Perkin Elmer).
pIC50 (the negative log of the IC50) values of the test compounds were calculated using GraphPad Prism.
HEK293 cells were obtained from the American Type Culture collection and propagated per their instructions. Expression clones for rat and mouse NaP2b (SLC34A2) cDNAs were obtained from Open Biosystems (Catalog numbers MRN1768-9510282 and MMM1013-98478398 respectively).
as §1, with “phosphate” for “phosphate (Pi)”
as §2, with “agent, 0.1% wt/v bovine serum albumin,” for “agent, 1 mg/mL Bovine Serum Albumin,”, “Each compounds” for “Each compound”
After incubation for 3-30 minutes at room temperature, assay mixtures were removed, and the cells were washed twice with ice cold stop solution (137 mM sodium chloride, 14 mM Tris, pH 7.4).

[2] = Determination of compound Cmax and AUC after oral gavage (plasma LC-MS/MS); assay type: in vivo, Sprague-Dawley rats; conditions: Sprague-Dawley, rat, plasma, po, Structure (I) examples
Summary of the method: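 Sprague-Dawley rats dosed by oral gavage at nominal 2.5 or 10 mg/kg; blood drawn at 0.5, 1, 2 and 4 h into K2EDTA. Plasma protein-precipitated with acetonitrile plus internal standard and analysed by LC-MS/MS against a plasma standard curve to derive Cmax and AUC.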

rat NaP2b (SLC34A2) [3] = target: T1, rat NaP2b (SLC34A2); experiment: Inhibition of NaP2b-mediated Pi (33P) uptake in transfected HEK293 cells, rat NaP2b; assay type: cell-based; conditions: 33P Pi uptake, 0.1 mM phosphate, value given as pIC50 range
Summary of the method: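 HEK293 cells were transiently transfected with NaP2b cDNA using Lipofectamine and grown near confluence. Compounds were tested at twelve concentrations from 0.1 nM to 30 uM in duplicate, and 33P-phosphate uptake was counted by scintillation after lysis. Results are expressed as pIC50.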

[4] = Stability of compounds in simulated intestinal fluid (SIF); assay type: in vitro ADME; conditions: simulated intestinal fluid (3 mg/mL pancreatin), incubation time 6 hr, relative to t=0
Summary of the method: (§3)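 Compounds at […] were incubated 3 or 6 hr in USP simulated gastric fluid with 3 mg/mL pepsin or simulated intestinal fluid with 3 mg/mL pancreatin. Remaining compound was quantified by HPLC-UV or HPLC-MS peak area % and reported as percent of the t=0 level in the same medium.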

[5] = Fecal recovery of orally administered compounds; assay type: in vivo, Sprague-Dawley rats; conditions: Structure (I) examples, Table 16; rat, oral gavage, feces collected until 48 hr after dosing
Source text: (§4) The animals were kept in metabolic cages and feces were collected from the time of dosing until 48 hr after dosing. Upon collection, feces were dried by lyophilization and ground to a visually homogenous powder. Duplicate samples of ground feces from each individual animal were weighed out and extracted using organic solvent. […] Extraction conditions were not optimized for individual compounds, and thus may represent a minimal level of recovery.
as §4, with “collection, feces was dried by” for “collection, feces were dried by”
as §4, with “collection, feces was dried by” for “collection, feces were dried by”
The animals were kept in metabolic cages and feces were collected from the time of dosing until 48 hr after dosing. Upon collection, feces was dried by lyophilization and ground to a visually homogenous powder. Duplicate samples of ground feces from each individual animal were weighed out and extracted using organic solvent.

[6] = Stability of compounds in simulated gastric fluid (SGF); assay type: in vitro ADME; conditions: simulated gastric fluid (3 mg/mL pepsin), incubation time 6 hr, relative to t=0
Summary of the method: as §3

human NaP2b (SLC34A2) = target: T2, human NaP2b (SLC34A2) (Homo sapiens, UniProt O95436); experiment: Inhibition of NaP2b-mediated Pi (33P) uptake in transfected HEK293 cells, human NaP2b; assay type: cell-based; conditions: read-out: pIC50 range for human NaP2b (converted)
T2 construct: host or cells: HEK293
T2 sequence (O95436 1-690): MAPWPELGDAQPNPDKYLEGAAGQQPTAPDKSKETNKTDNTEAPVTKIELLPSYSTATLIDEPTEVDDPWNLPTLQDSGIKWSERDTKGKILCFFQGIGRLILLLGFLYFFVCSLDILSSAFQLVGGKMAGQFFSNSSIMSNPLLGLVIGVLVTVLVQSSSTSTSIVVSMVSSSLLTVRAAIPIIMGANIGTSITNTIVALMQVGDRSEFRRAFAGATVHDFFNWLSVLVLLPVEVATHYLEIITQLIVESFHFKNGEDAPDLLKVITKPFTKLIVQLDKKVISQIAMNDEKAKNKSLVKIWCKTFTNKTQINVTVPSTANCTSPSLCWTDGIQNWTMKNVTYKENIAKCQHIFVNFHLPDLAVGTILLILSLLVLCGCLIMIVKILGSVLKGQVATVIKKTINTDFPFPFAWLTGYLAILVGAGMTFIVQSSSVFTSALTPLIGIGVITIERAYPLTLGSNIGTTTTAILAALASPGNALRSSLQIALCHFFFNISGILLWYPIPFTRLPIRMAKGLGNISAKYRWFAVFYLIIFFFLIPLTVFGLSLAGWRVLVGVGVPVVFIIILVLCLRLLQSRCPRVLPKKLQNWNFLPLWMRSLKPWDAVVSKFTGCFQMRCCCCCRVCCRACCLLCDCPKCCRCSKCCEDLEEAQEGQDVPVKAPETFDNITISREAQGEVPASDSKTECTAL
Summary of the method: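 HEK293 cells transiently transfected with human NaP2b (Thr inserted after residue 37, N39D), endogenous PiT transport pharmacologically silenced. Sodium or choline buffer, pH 7.4, with 100 uM KH2PO4, 33P orthophosphate and compound (0.1 nM–30 uM, twelve concentrations, duplicate). 3-30 min at room temperature, scintillation counting, pIC50 derived.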

[7] = Structure (V) examples, rat NaP2b, HEK293, read-out: pIC50 Range (converted)
[8] = Table 15, actual oral dose 3-15 mg/kg, plasma 0.5-4 h

| Structure (SMILES) | IC50 (rat NaP2b (SLC34A2) [1]; [7]) [µM] | IC50 (rat NaP2b (SLC34A2) [1]; Structure (III) examples, HEK293, 0.1 mM phosphate, read-out: pIC50 range for rat Nap2b (converted)) [µM] | AUC [2, 8] [ng·h/mL] | Cmax [2, 8] [ng/mL] | IC50 (rat NaP2b (SLC34A2) [3]) [µM] | % remaining, SIF [4] [%] | % recovered in feces [5] | % remaining, SGF [6] | AUC ([2]; Table 15, actual oral dose 15-40 mg/kg, plasma 0.5-4 h) [ng·h/mL] | Cmax ([2]; Table 15, plasma 0.5-4 h) [ng/mL] | IC50 (human NaP2b (SLC34A2)) [µM] |
| --- | --- | --- | --- | --- | --- | --- | --- | --- | --- | --- | --- |
| O=C(O)CCSCc1cccc(C(=O)Nc2ccc(N3CCCCC3)cc2C(=O)Nc2cnc(-c3cccc(C(F)(F)F)c3)cn2)c1 [Example 12] |  | 1 to 7.94 |  |  |  |  |  |  |  |  |  |
| O=C(O)CCOCCOCCOCCNC(=O)c1cccc(SCc2cccc(C(=O)Nc3ccc(Cl)cc3-c3cc(C(=O)NCc4cccc(C(F)(F)F)c4)ccn3)c2)c1 [Example 264, 1-(3-(3-(4-chloro-2-(4-(3-(trifluoromethyl)benzylcarbamoyl)pyridin-2-yl)phenylcarbamoyl)benzylthio)phenyl)-1-oxo-5,8,11-trioxa-2-azatetradecan-14-oic acid] |  |  | < 10 | < 10 | 10 to 31.6 | >80 | <20% | 40-60% |  |  |  |
| CC(C)(SCc1cccc(C(=O)Nc2ccc(N3CCCCC3)cc2-c2cc(C(=O)NCc3cccc(C(F)(F)F)c3)ccn2)c1)C(=O)O [Example 8.6] |  |  | > 50 | < 50 | 1 to 7.94 | >80 | 20-80% | >80% |  |  |  |
| CCN(CC)c1ccc(NC(=O)c2cccc(CCCOCCOCCOCCOCCNS(=O)(=O)c3ccc(CCC(=O)O)cc3)c2)c(-c2cc(C(=O)NCc3cccc(C(F)(F)F)c3)ccn2)c1 [Example 294, 3-(4-(N-(15-(3-(4-(diethylamino)-2-(4-(3-(trifluoromethyl)benzylcarbamoyl)pyridin-2-yl)phenylcarbamoyl)phenyl)-3,6,9,12-tetraoxapentadecyl)sulfamoyl)phenyl)propanoic acid] |  |  | > 50 | < 10 | < 1 |  | >80% |  |  |  | < 1 |

Continued, values first:

| IC50 (rat NaP2b (SLC34A2) [1]; [7]) [µM] | IC50 (rat NaP2b (SLC34A2) [1]; Structure (III) examples, HEK293, 0.1 mM phosphate, read-out: pIC50 range for rat Nap2b (converted)) [µM] | AUC [2, 8] [ng·h/mL] | Cmax [2, 8] [ng/mL] | IC50 (rat NaP2b (SLC34A2) [3]) [µM] | % remaining, SIF [4] [%] | % recovered in feces [5] | % remaining, SGF [6] | AUC ([2]; Table 15, actual oral dose 15-40 mg/kg, plasma 0.5-4 h) [ng·h/mL] | Cmax ([2]; Table 15, plasma 0.5-4 h) [ng/mL] | IC50 (human NaP2b (SLC34A2)) [µM] | Structure (SMILES) |
| --- | --- | --- | --- | --- | --- | --- | --- | --- | --- | --- | --- |
| 10 to 100 |  |  |  |  |  |  |  |  |  |  | O=C(CCOCCOCCOCCOCCOCCOCCOCCOCCSCc1cccc(C(=O)Nc2ccc(N3CCCCC3)cc2C(=O)N/N=C/c2ccc(Cl)c(C(F)(F)F)c2)c1)N[C@H]1C(O)O[C@H](CO)[C@@H](O)[C@@H]1O (stereo partly shown) [Ex. 28] |
| 0.1 to 0.794 |  |  |  |  |  |  |  |  |  |  | O=C(Nc1ccc(N2CCCCC2)cc1C(=O)N/N=C/c1ccc(Cl)c(C(F)(F)F)c1)c1cccc(Cn2cc(CO)nn2)c1 [Example 8] |
|  |  | < 10 | < 10 | 1 to 7.94 | >80 | <20% | >80% |  |  |  | O=C(O)CCOCCOCCOCCNC(=O)Cc1cccc(SCc2cccc(C(=O)Nc3ccc(N4CCCCC4)cc3-c3cc(C(=O)NCc4cccc(C(F)(F)F)c4)ccn3)c2)c1 [Example 137] |
|  |  |  |  | 1 to 7.94 |  | 20-80% |  | < 50 | < 10 | 1 to 7.94 | CCN(CC)c1ccc(NC(=O)c2cccc(CCCOCCOCCOCCOCCC(=O)N3CCN(C(=O)c4cccc(CCCOCCOCCOCCOCCOCCOCCOCCOCCOC)c4)CC3)c2)c(-c2cc(C(=O)NCc3cccc(C(F)(F)F)c3)ccn2)c1 [Example 262, 2-(2-(3-(16-(4-(3-(2,5,8,11,14,17,20,23,26-nonaoxanonacosan-29-yl)benzoyl)piperazin-1-yl)-16-oxo-4,7,10,13-tetraoxahexadecyl)benzamido)-5-(diethylamino)phenyl)-N-(3-(trifluoromethyl)benzyl)isonicotinamide] |
